Laboratory results as given in patent US9365541B2, “Compounds for use in the treatment of parasitic diseases” (IRBM—SCIENCE PARK S.P.A., priority 2012, dated 2016).
pEC50, pIC50: −log10 of the molar value.

Tests used:
human HDAC1 = biological target: T1, human HDAC1 (Homo sapiens, UniProt Q13547); test: Homo sapiens HDAC1 inhibition assay (Fluor-de-Lys, enzymatic); format: biochemical; conditions: human HDAC enzymatic assay; read-out: hHDAC IC50
T1 construct: made in house; host or cells: HeLa (ATCC CCL-2), mammalian cells
How it was run: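 Fluorogenic deacetylation read-out: trypsin developer, supplemented with 2 μM final TSA as stop, releases fluorophore from deacetylated substrate.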

[1] = system: Plasmodium falciparum 3D7; test: P. falciparum growth inhibition assay (Pf-LDH); format: cell-based; conditions: Plasmodium falciparum, Erythrocyte; P. falciparum 3D7 infected erythrocytes, 72 h incubation, PfLDH readout
How it was run: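 Compounds were tested against 72 h cultures of the 3D7 strain (0.25% parasitemia, 2% hematocrit, 37° C, low-oxygen gas). Parasite growth was quantified as lactate dehydrogenase activity via NBT reduction, absorbance 650 nm, after freezing and thawing.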

T1 sequence (Q13547 whole entry): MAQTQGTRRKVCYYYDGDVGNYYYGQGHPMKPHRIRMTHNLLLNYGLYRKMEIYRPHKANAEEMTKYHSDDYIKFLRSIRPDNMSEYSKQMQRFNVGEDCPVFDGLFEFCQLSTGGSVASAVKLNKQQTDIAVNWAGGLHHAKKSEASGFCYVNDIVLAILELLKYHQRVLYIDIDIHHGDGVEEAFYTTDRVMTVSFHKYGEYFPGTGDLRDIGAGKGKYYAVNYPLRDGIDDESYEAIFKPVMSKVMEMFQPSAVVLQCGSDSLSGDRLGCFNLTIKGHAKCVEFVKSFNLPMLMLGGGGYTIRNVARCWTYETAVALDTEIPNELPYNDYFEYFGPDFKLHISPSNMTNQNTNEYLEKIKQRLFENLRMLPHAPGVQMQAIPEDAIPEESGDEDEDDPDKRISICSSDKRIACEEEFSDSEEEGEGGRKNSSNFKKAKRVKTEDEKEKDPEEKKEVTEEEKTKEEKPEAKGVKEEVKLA

CNC(=O)CCCCC[C@H](NC(=O)c1cncs1)c1ncc(-c2ccc3ccccc3c2)[nH]1 [Entry 95, (S)-N-(7-(methylamino)-1-(5-(naphthalen-2-yl)-1H-imidazol-2-yl)-7-oxo-heptyl)thiazole-5-carboxamide] was tested, and the pIC50 (human HDAC1) was > 6.00 and the pEC50 [1] was > 6.00.

CNC(=O)CCCCC[C@H](NC(=O)c1cncs1)c1ncc(-c2cc3ccccc3nc2Cl)[nH]1 [Entry 80, (S)-N-(1-(5-(2-chloroquinolin-3-yl)-1H-imidazol-2-yl)-7-(methylamino)-7-oxoheptyl)thiazole-5-carboxamide] gave a pIC50 (human HDAC1) of 5.30 to 6.00 and a pEC50 [1] of 5.30 to 6.00.

Work on CNC(=O)CCCCC[C@H](NC(=O)c1cncs1)c1ncc(-c2cc3cc(OC)ccc3[nH]2)[nH]1 [Entry 54, (S)-N-(1-(5-(5-methoxy-1H-indol-2-yl)-1H-imidazol-2-yl)-7-(methylamino)-7-oxoheptyl)thiazole-5-carboxamide] yielded a pIC50 (human HDAC1) of 5.30 to 6.00 and a pEC50 [1] of 5.30 to 6.00.

In the case of CNC(=O)CCCCC[C@H](OC(=O)C12CCN(CC1)CC2)c1ncc(-c2cc3ccccc3nc2OC)o1 [Entry 56], the pIC50 (human HDAC1) was > 6.00 and the pEC50 [1] was 5.30 to 6.00.

Compound CNC(=O)CCCCC[C@H](NC(=O)C(C)n1cccn1)c1ncc(-c2ccc3ccccc3c2)[nH]1 (stereo partly drawn) [Entry 85, (7S)-7-(2-(1H-pyrazol-1-yl)propanamido)-N-methyl-7-(5-(naphthalen-2-yl)-1H-imidazol-2-yl)heptanamide] has a pIC50 (human HDAC1) of 5.30 to 6.00 and a pEC50 [1] of 5.30 to 6.00.

For CNC(=O)CCCCC[C@H](NC(=O)c1cncs1)c1ncc(-c2ccc(CN)cc2)[nH]1 [Entry 60, (S)-N-(1-(5-(4-(amino-methyl)phenyl)-1H-imidazol-2-yl)-7-(methylamino)-7-oxoheptyl)thiazole-5-carboxamide], the pIC50 (human HDAC1) was 5.30 to 6.00 and the pEC50 [1] was < 5.30.

For CNC(=O)CCCCC[C@H](NC(=O)c1cc(C)nn1C)c1ncc(-c2cc3ccccc3nc2OC)[nH]1 [Entry 9, (S)-N-(1-(5-(2-methoxyquinolin-3-yl)-1H-imidazol-2-yl)-7-(methylamino)-7-oxoheptyl)-1,3-dimethyl-1H-pyrazole-5-carboxamide], the pIC50 (human HDAC1) was > 6.00 and the pEC50 [1] was 5.30 to 6.00.

Work on CNC(=O)CCCCC[C@H](NC(=O)c1cncs1)c1ncc(-c2ccc(-c3ccccn3)cc2)[nH]1 [Entry 139, (S)-N-(7-(methylamino)-7-oxo-1-(5-(4-(pyridin-2-yl)phenyl)-1H-imidazol-2-yl)heptyl)thiazole-5-carboxamide] yielded a pIC50 (human HDAC1) of 5.30 to 6.00 and a pEC50 [1] of 5.30 to 6.00.

With CNC(=O)CCCCC[C@H](NC(=O)c1cncs1)c1ncc(-c2ccc(Cl)c(Cl)c2)[nH]1 [Entry 129, (S)-N-(1-(5-(3,4-dichlorophenyl)-1H-imidazol-2-yl)-7-(methylamino)-7-oxoheptyl)thiazole-5-carboxamide] the pIC50 (human HDAC1) was < 5.30 and the pEC50 [1] was < 5.30.

CNC(=O)CCCCC[C@H](NC(=O)c1cccnc1)c1ncc(-c2ccc3ccccc3c2)[nH]1 [Entry 175, (S)-N-(7-(methylamino)-1-(5-(naphthalen-2-yl)-1H-imidazol-2-yl)-7-oxo-heptyl)nicotinamide] was tested, and the pIC50 (human HDAC1) was > 6.00 and the pEC50 [1] was > 6.00.

CNC(=O)CCCCC[C@H](NC(=O)c1ccns1)c1ncc(-c2ccc(-c3ccn(C)n3)cc2)[nH]1 [Entry 16, (S)-N-(1-(5-(4-(1-methyl-1H-pyrazol-3-yl)phenyl)-1H-imidazol-2-yl)-7-(methylamino)-7-oxoheptyl)isothiazole-5-carboxamide] was tested, and the pIC50 (human HDAC1) was 5.30 to 6.00 and the pEC50 [1] was > 6.00.

In the case of CNC(=O)CCCCC[C@H](NC(=O)CC1=CSC2=NCCCN12)c1ncc(-c2cc3ccccc3nc2OC)[nH]1 [Entry 201, (S)-7-(2-(6,7-dihydro-5H-thiazolo[3,2-a]pyrimidin-3-yl)acetamido)-7-(5-(2-methoxyquinolin-3-yl)-1H-imidazol-2-yl)-N-methylheptanamide], the pIC50 (human HDAC1) was 5.30 to 6.00 and the pEC50 [1] was > 6.00.

With CCc1nc2ccccc2n1CCC(=O)N[C@@H](CCCCCC(=O)NC)c1ncc(-c2ccc3ccccc3c2)[nH]1 [Entry 150, (S)-7-(3-(2-ethyl-1H-benzo[d]imidazol-1-yl)propanamido)-N-methyl-7-(5-(naphthalen-2-yl)-1H-imidazol-2-yl)heptanamide] the pIC50 (human HDAC1) was > 6.00 and the pEC50 [1] was > 6.00.

For CNC(=O)CCCCC[C@H](NC(=O)c1ccnc2c1CCCN2)c1ncc(-c2ccc3ccccc3c2)[nH]1 [Entry 2, (S)-N-(7-(methylamino)-1-(5-(naphthalen-2-yl)-1H-imidazol-2-yl)-7-oxoheptyl)-5,6,7,8-tetrahydro-1,8-naphthyridine-4-carboxamide], the pIC50 (human HDAC1) was 5.30 to 6.00 and the pEC50 [1] was 5.30 to 6.00.

For CNC(=O)CCCCC[C@H](NC(=O)c1cnsc1)c1ncc(-c2ccc3ccncc3c2)[nH]1 [Entry 46, (S)-N-(1-(5-(isoquinolin-7-yl)-1H-imidazol-2-yl)-7-(methylamino)-7-oxo-heptyl)isothiazole-4-carboxamide], the pIC50 (human HDAC1) was > 6.00 and the pEC50 [1] was > 6.00.

CNC(=O)CCCCC[C@H](NC(=O)Cn1cnc2ccccc21)c1ncc(-c2ccc3ccccc3c2)[nH]1 [Entry 44, (S)-7-(2-(1H-benzo[d]imidazol-1-yl)acetamido)-N-methyl-7-(5-(naphthalen-2-yl)-1H-imidazol-2-yl)heptanamide] was tested, and the pIC50 (human HDAC1) was > 6.00 and the pEC50 [1] was 5.30 to 6.00.

For CNC(=O)CCCCC[C@H](NC(=O)CCN1CCN(C)CC1)c1ncc(-c2cc3ccccc3nc2OC)[nH]1 [Entry 131], the pIC50 (human HDAC1) was > 6.00 and the pEC50 [1] was 5.30 to 6.00.

For CNC(=O)CCCCC[C@H](NC(=O)c1cnc(CN2CCCC2)s1)c1ncc(-c2ccc(-n3cccn3)cc2)[nH]1 [Entry 141, (S)-N-(1-(5-(4-(1H-pyrazol-1-yl)phenyl)-1H-imidazol-2-yl)-7-(methylamino)-7-oxoheptyl)-2-(pyrrolidin-1-ylmethyl)thiazole-5-carboxamide], the pIC50 (human HDAC1) was 5.30 to 6.00 and the pEC50 [1] was 5.30 to 6.00.

With CNC(=O)CCCCC[C@H](NC(=O)Cc1n[nH]c(=O)[nH]1)c1ncc(-c2ccc3ccccc3c2)[nH]1 [Entry 115] the pIC50 (human HDAC1) was 5.30 to 6.00 and the pEC50 [1] was 5.30 to 6.00.

In the case of CNC(=O)CCCCC[C@H](NC(=O)c1cnc(CN2CCCC2)s1)c1ncc(-c2ccc3ccncc3c2)[nH]1 [Entry 65, (S)-N-(1-(5-(isoquinolin-7-yl)-1H-imidazol-2-yl)-7-(methylamino)-7-oxoheptyl)-2-(pyrrolidin-1-ylmethyl)thiazole-5-carboxamide], the pIC50 (human HDAC1) was > 6.00 and the pEC50 [1] was > 6.00.

CNC(=O)CCCCC[C@H](NC(=O)Cn1c(=O)ncc2ccccc21)c1ncc(-c2ccc3ccccc3c2)[nH]1 [Entry 151] was tested, and the pIC50 (human HDAC1) was > 6.00 and the pEC50 [1] was 5.30 to 6.00.

In the case of CNC(=O)CCCCC[C@H](NC(=O)OCc1ccccc1)c1ncc(-c2ccc3ccncc3c2)[nH]1 [Entry 93, (S)-benzyl (1-(5-(isoquinolin-7-yl)-1H-imidazol-2-yl)-7-(methylamino)-7-oxoheptyl)carbamate], the pIC50 (human HDAC1) was > 6.00 and the pEC50 [1] was > 6.00.

Work on CNC(=O)CCCCC[C@H](NC(=O)c1cncs1)c1ncc(-c2ccc3ccnc(OC)c3c2)[nH]1 [Entry 219, (S)-N-(1-(5-(1-methoxyisoquinolin-7-yl)-1H-imidazol-2-yl)-7-(methylamino)-7-oxoheptyl)thiazole-5-carboxamide] yielded a pIC50 (human HDAC1) of 5.30 to 6.00 and a pEC50 [1] of 5.30 to 6.00.

For CNC(=O)CCCCC[C@H](NC(=O)Cn1cncn1)c1ncc(-c2ccc3ccncc3c2)[nH]1 [Entry 89, (S)-7-(2-(1H-1,2,4-triazol-1-yl)acetamido)-7-(5-(isoquinolin-7-yl)-1H-imidazol-2-yl)-N-methylheptanamide], the pIC50 (human HDAC1) was 5.30 to 6.00 and the pEC50 [1] was 5.30 to 6.00.
